Measurements from patent US20070238765A1, “Heterocyclic GABAA subtype selective receptor modulators” (Roche Palo Alto LLC, priority 2006, published 2007).

Experiments:
GABAA α1β2γ2 = target: T1, GABAA α1β2γ2 (Homo sapiens, UniProt P14867+P18507+P47870); assay: 35S-TBPS binding assay, HEK293 membranes with GABAA α1β2γ2 construct; details: 35S-TBPS 5 nM, GABA 1 μM, 2 hours at room temperature, read-out: α1β2γ2 (35S-TBPS binding, pIC50) (converted)
T1 construct: expressed in transfected cells; host or cells: HEK293
T1 sequence (P14867 28-456): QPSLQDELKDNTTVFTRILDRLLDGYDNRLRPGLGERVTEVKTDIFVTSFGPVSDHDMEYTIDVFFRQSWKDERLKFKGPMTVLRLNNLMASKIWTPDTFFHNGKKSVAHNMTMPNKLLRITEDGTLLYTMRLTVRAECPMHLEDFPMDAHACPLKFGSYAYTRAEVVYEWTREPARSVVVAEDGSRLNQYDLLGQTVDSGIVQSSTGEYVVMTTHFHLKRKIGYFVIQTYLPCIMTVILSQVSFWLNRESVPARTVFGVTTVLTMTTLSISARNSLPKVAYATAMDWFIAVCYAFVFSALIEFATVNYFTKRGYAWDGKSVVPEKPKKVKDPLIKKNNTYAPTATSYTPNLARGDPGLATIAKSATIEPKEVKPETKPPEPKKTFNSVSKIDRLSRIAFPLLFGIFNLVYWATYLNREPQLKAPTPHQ
T1 sequence (P47870 25-512 limits assumed): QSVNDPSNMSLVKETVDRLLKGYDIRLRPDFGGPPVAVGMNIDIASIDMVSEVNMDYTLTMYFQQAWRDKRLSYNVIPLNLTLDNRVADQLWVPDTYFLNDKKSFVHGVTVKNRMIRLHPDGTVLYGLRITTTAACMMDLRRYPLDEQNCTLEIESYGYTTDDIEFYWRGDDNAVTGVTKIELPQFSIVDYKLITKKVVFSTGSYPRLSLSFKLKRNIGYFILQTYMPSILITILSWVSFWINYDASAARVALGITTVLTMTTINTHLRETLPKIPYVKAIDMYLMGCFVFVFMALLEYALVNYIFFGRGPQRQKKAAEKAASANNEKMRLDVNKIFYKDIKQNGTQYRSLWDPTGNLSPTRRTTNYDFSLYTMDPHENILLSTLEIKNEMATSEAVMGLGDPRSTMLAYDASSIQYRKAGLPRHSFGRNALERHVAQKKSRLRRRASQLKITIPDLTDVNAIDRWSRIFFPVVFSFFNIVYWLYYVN
T1 sequence (P18507 40-475): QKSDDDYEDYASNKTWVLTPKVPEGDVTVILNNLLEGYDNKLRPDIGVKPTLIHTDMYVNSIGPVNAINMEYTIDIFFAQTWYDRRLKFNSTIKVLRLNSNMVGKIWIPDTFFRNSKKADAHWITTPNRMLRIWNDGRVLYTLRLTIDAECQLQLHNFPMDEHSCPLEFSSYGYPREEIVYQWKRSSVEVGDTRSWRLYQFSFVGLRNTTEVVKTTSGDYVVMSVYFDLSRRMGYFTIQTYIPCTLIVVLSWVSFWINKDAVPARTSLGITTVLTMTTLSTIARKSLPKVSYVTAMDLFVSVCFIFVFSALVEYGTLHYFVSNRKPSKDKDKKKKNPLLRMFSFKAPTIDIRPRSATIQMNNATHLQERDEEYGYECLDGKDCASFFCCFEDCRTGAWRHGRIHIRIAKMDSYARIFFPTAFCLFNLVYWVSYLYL
Procedure: (§1) The binding assay is based on the assay reported by K. Gee et al., Eur. J. Pharmacol. 1987, 136, 419-423.
(§2) Homogenate preparation: Membrane preparations of HEK293 cells containing either GABAA α1β2γ2 or GABAA α2β3γ2 constructs were performed according to a modified procedure previously described by Gee et al. (supra). Whole HEK 293 cells in D-PBS (calcium/magnesium free) buffer adjusted to pH 7.4 were centrifuged at 7,280×g for 20 m. After discarding the supernatant, the pellet was resuspended in the buffer and centrifuged at 1,820×g for 10 m. Afterwards, the supernatant was discarded and the pellet resuspended in ice-cold preparation buffer (50 mM Tris HCl pH 7.4, 4° C. and 150 mM KCl), homogenized for 30 sec using a Brinkmann Polytron PT3000 (setting 6) and centrifuged at 48,000×g for 30 m at 4° C. The centrifugation and homogenization procedure was repeated two more times for a total of 3 times before resuspending the membranes at a final protein concentration of 0.5 mg/mL. Aliquots (30 mL) of the final membrane preparation were then centrifuged at 48,000×g for 30 m, and the resulting pellets were stored at −80° C. until required.
(§3) 35S-TBPS binding assay. Membrane pellets containing either GABAA α1β2γ2 or GABAA α2β3γ2 constructs were thawed on ice, resuspended in 10 mL of 50 mM Tris HCl pH7.4, 4° C. and 150 mM KCl and centrifuged at 48,000×g, 30 m at 4° C. After discarding the supernatant, the pellet was resuspended in 30 mL incubation buffer (50 mM Tris HCl pH 7.4, 25° C. and 150 mM KCl) at approximately 0.5 mg/mL protein concentration. In 35S-TBPS competition studies, HEK293 membranes were incubated with 35S-TBPS (5 nM final) and GABA (1 μM) in the absence or presence of competitor at concentrations ranging from 0.01 nM to 10 μM in 125 μL incubation buffer for 2 hours at room temperature (˜22° C.). Non-specific binding was assayed with picrotoxin (100 μM final concentration). The binding reaction was terminated by vacuum filtration through GF/B filters previously soaked in 0.1% polyethylenimine followed by 3×1 mL washes with ice cold wash buffer (50 mM Tris HCl pH7.4, 4° C. and 150 mM KCl). Measurement of bound radioactivity was performed using a Packard Microplate 96 well topcount scintillation counter. Analysis of competition curves and estimation of pIC50 values of test compounds were performed using the software programs ActivityBase and/or Prism (version 3.0).

GABAA α2β3γ2 = target: T2, GABAA α2β3γ2 (Homo sapiens, UniProt P18507+P28472+P47869); assay: 35S-TBPS binding assay, HEK293 membranes with GABAA α2β3γ2 construct; details: 35S-TBPS 5 nM, GABA 1 μM, 2 hours at room temperature, read-out: α2β3γ2 (35S-TBPS binding, pIC50) (converted)
T2 construct: expressed in transfected cells; host or cells: HEK293
T2 sequence (P47869 29-451): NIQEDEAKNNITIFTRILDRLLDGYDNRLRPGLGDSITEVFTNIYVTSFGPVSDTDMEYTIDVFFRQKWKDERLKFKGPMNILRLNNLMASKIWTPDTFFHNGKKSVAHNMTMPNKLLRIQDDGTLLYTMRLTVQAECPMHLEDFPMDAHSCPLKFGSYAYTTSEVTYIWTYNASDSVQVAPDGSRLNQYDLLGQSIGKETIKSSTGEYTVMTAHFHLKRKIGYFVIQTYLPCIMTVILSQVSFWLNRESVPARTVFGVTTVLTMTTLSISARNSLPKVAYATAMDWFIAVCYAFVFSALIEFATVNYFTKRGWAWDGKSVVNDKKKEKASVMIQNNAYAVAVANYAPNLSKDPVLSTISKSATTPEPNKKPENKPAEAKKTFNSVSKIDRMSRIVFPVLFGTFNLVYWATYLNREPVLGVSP
T2 sequence (P28472 26-473): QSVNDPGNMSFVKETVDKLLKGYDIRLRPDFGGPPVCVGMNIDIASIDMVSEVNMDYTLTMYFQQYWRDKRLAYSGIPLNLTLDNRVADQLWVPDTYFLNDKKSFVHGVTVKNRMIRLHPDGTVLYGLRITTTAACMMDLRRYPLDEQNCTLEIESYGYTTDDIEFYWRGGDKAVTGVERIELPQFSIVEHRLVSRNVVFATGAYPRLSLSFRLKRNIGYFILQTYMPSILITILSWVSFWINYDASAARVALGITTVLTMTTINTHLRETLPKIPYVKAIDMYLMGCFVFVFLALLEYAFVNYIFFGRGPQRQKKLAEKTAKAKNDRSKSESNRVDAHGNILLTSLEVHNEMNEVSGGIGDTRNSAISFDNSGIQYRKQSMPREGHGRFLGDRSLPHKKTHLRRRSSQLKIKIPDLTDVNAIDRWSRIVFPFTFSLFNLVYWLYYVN
T2 sequence (P18507 40-475): as the sequence (P18507 40-475) above
Procedure: as §1, §2, §3

IC50 (GABAA α1β2γ2) [µM] | IC50 (GABAA α2β3γ2) [µM] | melting point [°C] | Compound
1.48 | 0.102 | 158.8 to 160.5 | Cn1nnc(Cc2c3cccc(-c4ccc(Cl)cc4Cl)c3nn2C)n1 [I-33, 7-(2,4-Dichloro-phenyl)-2-meth-yl-3-(2-methyl-2H-tetra-zol-5-ylmethyl)-2H-inda-zole]
1.15 | 0.269 | 156.6 to 157.8 | Cn1nc2c(-c3ccc(Cl)cc3Cl)cccc2c1Cc1nnn(CS(C)(=O)=O)n1 [I-12, 7-(2,4-Dichloro-phenyl)-3-(2-meth-anesulfonylmethyl-2H-tetra-zol-5-ylmethyl)-2-meth-yl-2H-indazole]
> 10 | 2.82 | 199 to 201.2 | Cn1nc2c(-c3ccc(Cl)cc3Cl)cccc2c1-c1nnco1 [I-39, 7-(2,4-Dichloro-phenyl)-2-meth-yl-3-[1,3,4]oxadiazol-2-yl-2H-inda-zole]
3.02 | 0.166 | 167.5 to 169.5 | Cn1nc2c(-c3ccc(Cl)cc3Cl)cccc2c1-c1cnco1 [I-51, 7-(2,4-Dichloro-phenyl)-2-meth-yl-3-oxazol-5-yl-2H-inda-zole]
> 10 | 4.07 | 117.9 to 121.3 | Cn1nc2c(-c3ccc(Cl)cc3Cl)cccc2c1-n1cnnc1 [I-23, 7-(2,4-Dichloro-phenyl)-2-meth-yl-3-[1,2,4]triazol-4-yl-2H-inda-zole]
> 10 | 0.468 | 162.2 to 167.1 | Cn1nc2c(-c3ccc(Cl)cc3Cl)cccc2c1C1=NCCO1 [I-48, 7-(2,4-Dichloro-phenyl)-3-(4,5-di-hydro-oxazol-2-yl)-2-meth-yl-2H-indazole]
1.2 | 0.151 | 256.8 to 258.1 | Cn1nc2c(-c3ccc(Cl)cc3Cl)cccc2c1/C=C/c1nnn[nH]1 [I-47, 7-(2,4-Dichloro-phenyl)-2-meth-yl-3-[(E)-2-(1H-tetra-zol-5-yl)-vinyl]-2H-inda-zole]
0.479 | 0.603 | 209.4 to 210.3 | Cn1nc2c(-c3ccc(Cl)cc3Cl)cccc2c1CCc1nnn[nH]1 [I-46, 7-(2,4-Dichloro-phenyl)-2-meth-yl-3-[2-(1H-tetrazol-5-yl)-eth-yl]-2H-indazole]
> 10 | > 10 | 60.5 to 65.1 | Cn1nc2c(-c3ccc(Cl)cc3Cl)cccc2c1CCC1=NCCN1 [I-38, 7-(2,4-Dichloro-phenyl)-3-[2-(4,5-di-hydro-1H-imidazol-2-yl)-eth-yl]-2-methyl-2H-inda-zole]
> 10 | 4.68 | 212.8 to 214.5 | Cn1nc2c(-c3ccc(Cl)cc3Cl)cccc2c1C1=NCCN1 [I-41, 7-(2,4-Dichloro-phenyl)-3-(4,5-di-hydro-1H-imidazol-2-yl)-2-meth-yl-2H-indazole]
9.55 | 0.309 | 92 to 115.5 | Cn1nc2c(-c3ccc(Cl)cc3Cl)cccc2c1CCc1ncn[nH]1 [I-34, 7-(2,4-Dichloro-phenyl)-2-meth-yl-3-[2-(2H-[1,2,4]tri-azol-3-yl)-ethyl]-2H-inda-zole]
> 10 | 0.676 | 178 to 178.5 | Cc1noc(-c2c3cccc(-c4ccc(Cl)cc4Cl)c3nn2C)n1 [I-50, 7-(2,4-Dichloro-phenyl)-2-meth-yl-3-(3-methyl-[1,2,4]oxa-diazol-5-yl)-2H-inda-zole]
6.31 | 1.51 | 165.9 to 167.5 | Cn1nc2c(-c3ccc(Cl)cc3Cl)cccc2c1CN1CCOC1=O [I-8, 3-[7-(2,4-Dichloro-phenyl)-2-meth-yl-2H-indazol-3-yl-methyl]-oxazolidin-2-one]
 | 1.7 | 183.9 to 185.4 | Cn1nnnc1Cc1c2cccc(-c3ccc(Cl)cc3Cl)c2nn1C [I-20, 7-(2,4-Dichloro-phenyl)-2-meth-yl-3-(1-methyl-1H-tetra-zol-5-ylmethyl)-2H-inda-zole]
> 10 | 0.398 | 66.1 to 87.2 | Cn1nc2c(-c3ccc(Cl)cc3Cl)cccc2c1Cc1nnnn1CCO [I-10, 2-{5-[7-(2,4-Dichloro-phenyl)-2-methyl-2H-inda-zol-3-ylmethyl]-tetrazol-1-yl}-eth-anol]
> 10 | 0.331 | 283.9 to 284.9 | Cn1nc2c(-c3ccc(Cl)cc3Cl)cccc2c1C(=O)c1ncn[nH]1 [I-15, [7-(2,4-Dichloro-phenyl)-2-meth-yl-2H-indazol-3-yl]-(2H-[1,2,4]tri-azol-3-yl)-meth-anone]
4.17 | 0.355 | 206.3 to 207 | Cn1nc2c(-c3ccc(Cl)cc3Cl)cccc2c1Cc1nc[nH]n1 [I-31, 7-(2,4-Dichloro-phenyl)-2-meth-yl-3-(1H-[1,2,4]triazol-3-yl-methyl)-2H-indazole]
2.24 | 0.234 | 270.1 to 275.5 | Cn1nc2c(-c3ccc(Cl)cc3Cl)cccc2c1Cc1nnn[nH]1 [I-53, 7-(2,4-Dichloro-phenyl)-2-meth-yl-3-(1H-tetrazol-5-yl-methyl)-2H-indazole]
1.51 | 0.347 | 147.7 to 151.1 | Cn1nc2c(-c3ccc(Cl)cc3Cl)cccc2c1Cc1nnn(CCO)n1 [I-11, 2-{5-[7-(2,4-Dichloro-phenyl)-2-methyl-2H-inda-zol-3-ylmethyl]-tetrazol-2-yl}-eth-anol]
0.933 | 0.11 | 209.8 to 210.3 | Cn1nc2c(-c3ccc(Cl)cc3Cl)cccc2c1C(=O)c1nnn[nH]1 [I-18, [7-(2,4-Dichloro-phenyl)-2-meth-yl-2H-indazol-3-yl]-(1H-tetra-zol-5-yl)-methanone]

Compound | IC50 (GABAA α1β2γ2) [µM] | IC50 (GABAA α2β3γ2) [µM] | melting point [°C]
Cn1nc2c(-c3ccc(Cl)cc3Cl)cccc2c1-n1ccnc1 [I-22, 7-(2,4-Dichloro-phenyl)-3-imi-dazol-1-yl-2-methyl-2H-inda-zole] | 3.16 | 0.355 | 63.2 to 89.4
